Experimental data from patent US4461912A, “Phenylacetic acid derivatives, their preparation and compositions containing them” (Sankyo Company Limited, priority 1981, dated 1984).
Like-named read-outs stand apart in the source and are kept apart here.

Assays:
pressure-induced pain = assay: Pain test for analgesic activity (modified Randall-Selitto, Brewers' yeast inflamed paw pressure); assay type: in vivo, Male Wistar-Imamichi rats; conditions: read-out: Analgesic activity ED50
Method: Pain test for analgesic activity
This test was conducted according to a modification of the method reported by L. O. Randall and J. J. Selitto in Arch. Int.
Male Wistar-Imamichi rats of 4 weeks of age and weighing 60-90 g were injected with 0.1 ml of a 20% by weight suspension of Brewers' yeast in the right hind paw. […] Each of these was given orally a test compound as an aqueous tragacanth suspension. 1 and 2 hours after administration of the test compound, the pain threshold was determined by observing pain responses (such as struggling or squeaking) when the inflamed or normal paw was subjected to pressure by a machine (Ugo-Basile).

carrageenin oedema = assay: Carrageenin oedema test for anti-inflammatory activity; assay type: in vivo, Male Wistar rats; conditions: rat, per os, aqueous tragacanth suspension, 30 minutes before carrageenin; paw volume 3 hours after carrageenin injection; dose to inhibit the response by 50%; unit assumed
Method: Carrageenin oedema test for anti-inflammatory activity
Male Wistar rats weighing 120-150 g were fasted overnight and then received a test compound per os as an aqueous tragacanth suspension. 30 minutes later, inflammation was induced by the subcutaneous injection of 0.05 ml of a 1% carrageenin suspension into the plantar tissue of a hind paw of each rat [Winter et al., Proc. Soc. […] The anti-oedema activity was measured volumetrically, by assessing the response, as calculated from the following equation: […]
where Vo and V represent, respectively, the paw volume immediately before and 3 hours after the carrageenin injection.

[1] = rat, oral, aqueous tragacanth suspension, pain threshold 1 and 2 hours after administration, effective = at least twice mean pain threshold of controls, Litchfield and Wilcoxon

| Compound | ED50 (pressure-induced pain; [1]) | Anti-inflammatory activity ID50 (carrageenin oedema) | ED50 (pressure-induced pain; Rattus norvegicus, po) |
| --- | --- | --- | --- |
| CC(C(=O)O)c1ccc(C=C2CCCCC2O)cc1 (stereo not drawn) [A, 2-[4-(2-hydroxycyclohexylidenemethyl)phenyl]propionic acid] | 0.35 mg/kg | 0.98 mg/kg |  |
| COc1ccc2c(c1)c(CC(=O)O)c(C)n2C(=O)c1ccc(Cl)cc1 [B, Indomethacin] |  | 2.2 mg/kg | 1.6 mg/kg |
| CC(C(=O)O)c1ccc(C=C2CCCCC2=O)cc1 (stereo not drawn) [C, 2-[4-(2-oxocyclohexylidenemethyl)phenyl]propionic acid] | 0.94 mg/kg | 1.2 mg/kg |  |
